Results reported in article PMC6487453 (ACS Central Science, 2019).

Molecular target: T1, LTA4H (Homo sapiens, UniProt P09960)
T1 sequence (P09960 2-611): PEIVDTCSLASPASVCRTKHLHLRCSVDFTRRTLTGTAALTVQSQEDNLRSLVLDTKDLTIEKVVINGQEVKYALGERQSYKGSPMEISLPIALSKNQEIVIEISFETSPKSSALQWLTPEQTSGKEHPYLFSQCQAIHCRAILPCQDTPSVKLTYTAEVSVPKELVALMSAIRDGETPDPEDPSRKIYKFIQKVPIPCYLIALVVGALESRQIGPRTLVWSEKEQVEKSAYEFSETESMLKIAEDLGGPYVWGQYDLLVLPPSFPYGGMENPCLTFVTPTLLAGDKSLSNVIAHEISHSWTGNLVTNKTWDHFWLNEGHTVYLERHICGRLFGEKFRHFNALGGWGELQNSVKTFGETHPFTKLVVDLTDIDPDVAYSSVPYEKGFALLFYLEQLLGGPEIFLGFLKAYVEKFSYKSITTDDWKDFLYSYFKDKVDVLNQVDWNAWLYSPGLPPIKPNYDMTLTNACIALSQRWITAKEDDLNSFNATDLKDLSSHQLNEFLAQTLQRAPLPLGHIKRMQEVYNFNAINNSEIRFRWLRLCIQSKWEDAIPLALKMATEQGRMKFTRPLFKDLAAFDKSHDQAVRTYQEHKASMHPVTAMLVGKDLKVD
Test: colorimetric peptidase assay, 4-nitroaniline absorption at […] nm
Format: biochemical
Settings: 50 mM HEPES pH 7.5, 100 mM KCl

Compound | colorimetric peptidase assay, 4-nitroaniline absorption at 410 nm (inhibitor, L-alanine 4-nitroanilide 1 mM, 460 nm light) | colorimetric peptidase assay, 4-nitroaniline absorption at 410 nm (1 mM substrate)
c1ccc(/N=N/c2ccc(OCCN3CCCC3)cc2)cc1 [trans-LTA4H-Photoswitch] | trans-LTA4H-Photoswitch was a more potent inhibitor of LTA4H peptidase than the cis-isomer | –
C[C@H](N)C(=O)Nc1ccc([N+](=O)[O-])cc1 [L-alanine 4-nitroanilide] | – | L-alanine 4-nitroanilide which is converted to the strongly absorbing 4-nitroaniline
